Data published in the CheMixHub ionic liquid set.

Test: xn = mol fraction of the nth substance listed

CCCC[N+](CCCC)(CCCC)CCCC.[Cl-] + NCCCO
viscosity [mPa·s], 101.3 kPa
Settings | 293.15 K | 298.15 K | 303.15 K | 308.15 K | 313.15 K | 318.15 K | 323.15 K | 328.15 K | 333.15 K
x2 = 0.8 | 101.4 | 77.4 | 57.8 | 44.6 | 36.2 | 28.9 | 23.4 | 19.4 | 16.1
x2 = 0.8571 | 70.7 | 53.9 | 41.7 | 32.8 | 26 | 21.1 | 17.3 | 14.2 | 12
x2 = 0.8889 | 60.2 | 46.1 | 35.7 | 28 | 22.5 | 18.3 | 15 | 12.5 | 10.7

CC[n+]1ccn(C)c1.[Cl-] + NCCNCCN + OCCO
viscosity [mPa·s], 100 kPa
Settings | 293 K | 303 K | 313 K | 323 K | 333 K | 343 K | 353 K
x2 = 0.25, x3 = 0.25 | 64.8 | 43.2 | 29.5 | 20.6 | 14.7 | 10.7 | 8
x2 = 0.333, x3 = 0.333 | 144 | 91.9 | 60.4 | 40.8 | 28.2 | 19.9 | 14.3
x2 = 0.4, x3 = 0.2 | 106 | 68.1 | 44.7 | 30.2 | 20.9 | 14.7 | 10.6
x2 = 0.429, x3 = 0.143 | 103 | 66.5 | 44.2 | 30.1 | 21 | 15 | 10.9
x2 = 0.5, x3 = 0.25 | 124 | 80.8 | 53.9 | 36.9 | 25.8 | 18.5 | 13.4

CCCC[N+](CCCC)(CCCC)CCCC.[Cl-] + N[C@@H](CO)C(=O)O
101 kPa
Settings | electrical conductivity, 313.15 K [S/m] | electrical conductivity, 323.15 K [S/m] | electrical conductivity, 333.15 K [S/m] | electrical conductivity, 343.15 K [S/m] | electrical conductivity, 353.15 K [S/m] | viscosity, 313.15 K [mPa·s] | viscosity, 323.15 K [mPa·s] | viscosity, 333.15 K [mPa·s] | viscosity, 343.15 K [mPa·s] | viscosity, 353.15 K [mPa·s]
x2 = 0.09091 | 0.024 | 0.035 | 0.06 | 0.09 | 0.13 | 1110 | 490 | 260 | 141 | 86
x2 = 0.1 | 0.0298 | 0.0451 | 0.0631 | 0.093 | 0.136 | 1220 | 600 | 297 | 158 | 97
x2 = 0.1111 | 0.0102 | 0.0181 | 0.0425 | 0.0933 | 0.136 | 1000 | 480 | 237 | 135 | 83
